{
  "source": "ChEMBL document CHEMBL3085626",
  "about": "“Synthesis and evaluation of multi-target-directed ligands against Alzheimer's disease based on the fusion of donepezil and ebselen” (J Med Chem, 2013)",
  "key": {"Acetylcholinesterase [1]": {"biological_target": "T1, Acetylcholinesterase (Electrophorus electricus, UniProt O42275)", "T1 sequence (O42275 whole entry)": "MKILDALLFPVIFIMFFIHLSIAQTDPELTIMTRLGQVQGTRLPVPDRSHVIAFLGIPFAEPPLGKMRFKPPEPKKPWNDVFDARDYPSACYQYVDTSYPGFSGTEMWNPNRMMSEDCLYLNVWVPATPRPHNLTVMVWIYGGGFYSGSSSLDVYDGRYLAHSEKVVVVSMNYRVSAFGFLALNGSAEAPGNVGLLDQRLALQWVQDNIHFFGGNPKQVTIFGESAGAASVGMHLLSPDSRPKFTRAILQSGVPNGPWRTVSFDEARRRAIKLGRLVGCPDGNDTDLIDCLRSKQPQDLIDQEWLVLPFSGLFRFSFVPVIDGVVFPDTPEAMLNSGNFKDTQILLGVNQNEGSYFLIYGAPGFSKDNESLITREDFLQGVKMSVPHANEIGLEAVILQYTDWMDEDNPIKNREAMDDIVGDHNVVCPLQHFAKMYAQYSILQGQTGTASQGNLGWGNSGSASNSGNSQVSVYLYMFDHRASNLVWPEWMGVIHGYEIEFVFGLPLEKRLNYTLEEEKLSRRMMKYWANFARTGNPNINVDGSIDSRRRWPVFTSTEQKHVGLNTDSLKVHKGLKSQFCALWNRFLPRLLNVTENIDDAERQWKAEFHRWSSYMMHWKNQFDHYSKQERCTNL", "description": "Inhibition of electric eel AChE using acetylthiocholine chloride as substrate preincubated for 15 mins followed by substrate addition measured every 1 min by Ellman's method"}, "Cholinesterase": {"biological_target": "Cholinesterase (Equus caballus, UniProt P81908)", "sequence (P81908 whole entry)": "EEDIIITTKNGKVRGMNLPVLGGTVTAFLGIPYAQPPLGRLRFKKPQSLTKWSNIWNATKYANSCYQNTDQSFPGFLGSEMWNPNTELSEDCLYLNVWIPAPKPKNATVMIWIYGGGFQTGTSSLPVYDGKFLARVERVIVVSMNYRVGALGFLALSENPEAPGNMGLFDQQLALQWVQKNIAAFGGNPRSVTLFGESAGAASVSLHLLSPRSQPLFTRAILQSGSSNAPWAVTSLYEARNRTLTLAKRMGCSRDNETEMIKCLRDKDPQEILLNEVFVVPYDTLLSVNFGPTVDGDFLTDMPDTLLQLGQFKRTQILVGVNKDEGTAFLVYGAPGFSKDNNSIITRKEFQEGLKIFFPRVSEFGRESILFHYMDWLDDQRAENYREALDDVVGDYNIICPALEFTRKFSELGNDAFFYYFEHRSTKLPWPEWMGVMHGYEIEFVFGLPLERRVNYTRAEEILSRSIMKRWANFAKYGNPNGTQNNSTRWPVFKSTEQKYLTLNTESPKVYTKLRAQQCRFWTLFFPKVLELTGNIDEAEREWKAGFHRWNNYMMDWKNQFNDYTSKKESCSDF", "description": "Inhibition of equine serum BuChE using butyrylthiocholine chloride as substrate preincubated for 15 mins followed by substrate addition measured every 1 min by Ellman's method"}, "Mus musculus [2]": {"tested_on": "Mus musculus", "experiment": "Acute toxicity in KM mouse assessed as effect on body weight up to 2000 mg/kg, po after 4 hrs", "format": "organism-based", "set-up": "dose 2000 mg/kg, route oral", "conditions": "in vivo"}, "Mus musculus [3]": {"tested_on": "Mus musculus", "experiment": "Acute toxicity in KM mouse assessed as mortality up to 2000 mg/kg, po after 24 hrs", "format": "organism-based", "set-up": "dose 2000 mg/kg, route oral", "conditions": "in vivo"}, "Mus musculus [4]": {"tested_on": "Mus musculus", "experiment": "Acute toxicity in KM mouse assessed as effect on food consumption up to 2000 mg/kg, po after 4 hrs", "format": "organism-based", "set-up": "dose 2000 mg/kg, route oral", "conditions": "in vivo"}, "[5]": {"biological_target": "Acetylcholinesterase (Electrophorus electricus) (UniProt O42275)", "sequence (O42275 24-633 limits assumed)": "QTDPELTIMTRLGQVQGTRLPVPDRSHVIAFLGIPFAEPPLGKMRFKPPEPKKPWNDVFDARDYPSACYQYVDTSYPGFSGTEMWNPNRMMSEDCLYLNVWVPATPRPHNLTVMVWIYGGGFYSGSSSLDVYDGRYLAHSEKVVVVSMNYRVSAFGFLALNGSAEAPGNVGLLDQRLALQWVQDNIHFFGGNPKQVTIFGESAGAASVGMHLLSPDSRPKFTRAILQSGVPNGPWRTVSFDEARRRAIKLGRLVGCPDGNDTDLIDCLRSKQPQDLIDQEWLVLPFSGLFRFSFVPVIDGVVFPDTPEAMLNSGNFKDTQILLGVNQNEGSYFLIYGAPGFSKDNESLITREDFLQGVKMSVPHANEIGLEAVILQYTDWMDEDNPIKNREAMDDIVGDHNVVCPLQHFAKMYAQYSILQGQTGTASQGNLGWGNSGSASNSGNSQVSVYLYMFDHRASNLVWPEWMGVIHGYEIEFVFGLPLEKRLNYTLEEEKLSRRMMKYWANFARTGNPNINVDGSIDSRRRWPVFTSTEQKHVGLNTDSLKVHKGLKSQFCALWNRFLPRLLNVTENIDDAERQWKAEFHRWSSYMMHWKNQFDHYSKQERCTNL", "experiment": "Mixed-type inhibition of electric eel AChE using acetylthiocholine chloride as substrate preincubated for 15 mins followed by substrate addition by Lineweaver-Burk plot analysis"}, "Acetylcholinesterase [6]": {"biological_target": "Acetylcholinesterase (Homo sapiens, UniProt P22303)", "sequence (P22303 whole entry)": "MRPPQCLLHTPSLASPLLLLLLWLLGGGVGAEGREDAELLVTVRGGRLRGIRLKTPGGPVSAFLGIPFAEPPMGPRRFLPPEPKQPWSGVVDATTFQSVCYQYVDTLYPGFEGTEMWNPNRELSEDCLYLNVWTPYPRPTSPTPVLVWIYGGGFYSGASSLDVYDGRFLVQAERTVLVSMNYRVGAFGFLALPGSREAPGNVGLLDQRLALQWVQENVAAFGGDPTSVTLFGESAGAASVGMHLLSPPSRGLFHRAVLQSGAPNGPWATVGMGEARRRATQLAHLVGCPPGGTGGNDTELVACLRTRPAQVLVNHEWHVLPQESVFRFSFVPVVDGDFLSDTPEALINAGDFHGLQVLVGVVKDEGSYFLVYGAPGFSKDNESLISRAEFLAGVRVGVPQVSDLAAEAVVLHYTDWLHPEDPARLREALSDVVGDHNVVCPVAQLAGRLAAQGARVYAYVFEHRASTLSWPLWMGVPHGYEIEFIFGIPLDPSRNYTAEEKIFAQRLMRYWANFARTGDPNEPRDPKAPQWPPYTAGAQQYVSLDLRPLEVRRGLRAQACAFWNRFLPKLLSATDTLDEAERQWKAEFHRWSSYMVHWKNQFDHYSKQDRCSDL", "experiment": "Inhibition of human erythrocyte AChE using acetylthiocholine chloride as substrate preincubated for 15 mins followed by substrate addition measured every 1 min by Ellman's method"}, "Mus musculus [7]": {"tested_on": "Mus musculus", "experiment": "Acute toxicity in KM mouse assessed as effect on water consumption up to 2000 mg/kg, po after 4 hrs", "format": "organism-based", "set-up": "dose 2000 mg/kg, route oral", "conditions": "in vivo"}, "Acetylcholinesterase [8]": {"biological_target": "T1, Acetylcholinesterase", "experiment": "[…] inhibition of electric eel AChE using acetylthiocholine chloride as substrate preincubated for 15 mins followed by substrate addition by Lineweaver-Burk plot analysis"}, "in vitro": {"experiment": "in vitro", "conditions": "PAMPA", "description": "Effective permeability of the compound at 5 mg/mL after 10 hrs by PAMPA"}, "[9]": {"experiment": "Acute toxicity in po dosed KM mouse measured for 14 days", "format": "organism-based", "conditions": "in vivo"}},
  "note": "pIC50, pKi: −log10 of the molar value. Active and inactive are the calls of the source. The calls are words filed in the database; no cut-off is given here.",
  "data": [
    {"smiles": "O=c1c2ccc(F)cc2[se]n1C1CCN(Cc2ccccc2)CC1", "values": [
      {"measurement": "pIC50", "setting": "Acetylcholinesterase [1]", "value": 4.71},
      {"measurement": "pIC50", "setting": "Cholinesterase", "value": 4.98}
    ]},
    {"smiles": "COc1cc2[se]n(CCC3CCN(Cc4ccccc4)CC3)c(=O)c2cc1OC", "values": [
      {"measurement": "Activity", "setting": "Mus musculus [2]", "value": "Non-toxic"},
      {"measurement": "pIC50", "setting": "Acetylcholinesterase [1]", "value": 7.38},
      {"measurement": "Activity", "setting": "Mus musculus [3]", "value": "Non-toxic"},
      {"measurement": "Activity", "setting": "Mus musculus [4]", "value": "Non-toxic"},
      {"measurement": "inhibition", "setting": "[5]", "value": "Active"},
      {"measurement": "pIC50", "setting": "Acetylcholinesterase [6]", "value": 7.01},
      {"measurement": "pIC50", "setting": "Cholinesterase", "value": 5.80},
      {"measurement": "Activity", "setting": "Mus musculus [7]", "value": "Non-toxic"},
      {"measurement": "pKi", "setting": "Acetylcholinesterase [8]", "value": 7.77},
      {"measurement": "Papp at 10 h, 5 mg/mL", "setting": "in vitro", "value": 8.6, "unit": "×10⁻⁶ cm/s"},
      {"measurement": "MTD at 336 h", "setting": "[9]", "value": 2000, "unit": "mg/kg"}
    ]},
    {"smiles": "O=c1c2ccc(Cl)cc2[se]n1C1CCN(Cc2ccccc2)CC1", "values": [
      {"measurement": "pIC50", "setting": "Acetylcholinesterase [1]", "value": 5.00},
      {"measurement": "pIC50", "setting": "Cholinesterase", "value": 4.67}
    ]},
    {"smiles": "O=c1c2ccccc2[se]n1-c1ccccc1", "note": "[EBSELEN]", "values": [
      {"measurement": "pIC50", "setting": "Acetylcholinesterase [1]", "value": 4.39},
      {"measurement": "pIC50", "setting": "Cholinesterase", "value": 4.98}
    ]},
    {"smiles": "O=c1c2ccc(F)cc2[se]n1CCC1CCN(Cc2ccccc2)CC1", "values": [
      {"measurement": "pIC50", "setting": "Acetylcholinesterase [1]", "value": 6.65},
      {"measurement": "pIC50", "setting": "Cholinesterase", "value": 5.44}
    ]},
    {"smiles": "O=c1c2ccc(Cl)cc2[se]n1CC1CCN(Cc2ccccc2)CC1", "values": [
      {"measurement": "pIC50", "setting": "Acetylcholinesterase [1]", "value": 5.21},
      {"measurement": "pIC50", "setting": "Cholinesterase", "value": 5.64}
    ]},
    {"smiles": "O=c1c2ccccc2[se]n1CCC1CCN(Cc2ccccc2)CC1", "values": [
      {"measurement": "pIC50", "setting": "Acetylcholinesterase [1]", "value": 6.42},
      {"measurement": "pIC50", "setting": "Cholinesterase", "value": 5.67}
    ]},
    {"smiles": "O=c1c2ccc(F)cc2[se]n1CC1CCN(Cc2ccccc2)CC1", "values": [
      {"measurement": "pIC50", "setting": "Acetylcholinesterase [1]", "value": 4.91},
      {"measurement": "pIC50", "setting": "Cholinesterase", "value": 5.46}
    ]},
    {"smiles": "O=c1c2ccccc2[se]n1C1CCN(Cc2ccccc2)CC1", "values": [
      {"measurement": "pIC50", "setting": "Acetylcholinesterase [1]", "value": 4.75},
      {"measurement": "pIC50", "setting": "Cholinesterase", "value": 5.08}
    ]},
    {"smiles": "O=c1c2ccc(Cl)cc2[se]n1CCC1CCN(Cc2ccccc2)CC1", "values": [
      {"measurement": "pIC50", "setting": "Acetylcholinesterase [1]", "value": 6.69},
      {"measurement": "pIC50", "setting": "Cholinesterase", "value": 5.63}
    ]},
    {"smiles": "COc1cc2[se]n(CCCCC3CCN(Cc4ccccc4)CC3)c(=O)c2cc1OC", "values": [
      {"measurement": "pIC50", "setting": "Acetylcholinesterase [1]", "value": 7.42},
      {"measurement": "pIC50", "setting": "Acetylcholinesterase [6]", "value": 6.99},
      {"measurement": "pIC50", "setting": "Cholinesterase", "value": 6.29},
      {"measurement": "Papp at 10 h, 5 mg/mL", "setting": "in vitro", "value": 15.8, "unit": "×10⁻⁶ cm/s"}
    ]},
    {"smiles": "O=c1c2ccccc2[se]n1CC1CCN(Cc2ccccc2)CC1", "values": [
      {"measurement": "pIC50", "setting": "Acetylcholinesterase [1]", "value": 4.70},
      {"measurement": "pIC50", "setting": "Cholinesterase", "value": 5.44}
    ]},
    {"smiles": "COc1cc2c(cc1OC)[Se](=O)N(CCC1CCN(Cc3ccccc3)CC1)C2=O", "note": "(stereo unspecified)", "values": [
      {"measurement": "pIC50", "setting": "Acetylcholinesterase [1]", "value": 7.37},
      {"measurement": "pIC50", "setting": "Acetylcholinesterase [6]", "value": 6.79},
      {"measurement": "pIC50", "setting": "Cholinesterase", "value": 5.87}
    ]},
    {"smiles": "COc1cc2[se]n(C3CCN(Cc4ccccc4)CC3)c(=O)c2cc1OC", "values": [
      {"measurement": "pIC50", "setting": "Acetylcholinesterase [1]", "value": 4.93},
      {"measurement": "pIC50", "setting": "Cholinesterase", "value": 5.02}
    ]},
    {"smiles": "COc1cc2[se]n(CC3CCN(Cc4ccccc4)CC3)c(=O)c2cc1OC", "values": [
      {"measurement": "pIC50", "setting": "Acetylcholinesterase [1]", "value": 5.37},
      {"measurement": "pIC50", "setting": "Cholinesterase", "value": 5.41}
    ]},
    {"smiles": "COc1cc2[se]n(CCCC3CCN(Cc4ccccc4)CC3)c(=O)c2cc1OC", "values": [
      {"measurement": "pIC50", "setting": "Acetylcholinesterase [1]", "value": 7.14},
      {"measurement": "pIC50", "setting": "Acetylcholinesterase [6]", "value": 6.64},
      {"measurement": "pIC50", "setting": "Cholinesterase", "value": 5.82},
      {"measurement": "Papp at 10 h, 5 mg/mL", "setting": "in vitro", "value": 10.3, "unit": "×10⁻⁶ cm/s"}
    ]}
  ]
}
